Data taken from patent EP0534396B1, “2-Substituted indane-2-carboxyalkyl derivatives useful as inhibitors of enkephalinase and ace” (MERRELL PHARMACEUTICALS INC., priority 1991, dated 1993).

Tests used:
Enkephalinase = target: T1, Enkephalinase (Rattus norvegicus, UniProt P07861); experiment: Enkephalinase inhibition, fluorometric enzyme assay; assay type: biochemical; conditions: enzyme partially purified from rat kidney; 50mM HEPES buffer (pH 7.4); 12 µM substrate dansyl-D-AlaGly(p-nitro)PheGly; 25°C
T1 construct: The enzyme is extracted from the microvilli fraction by using Triton X-100; from tissue; host or cells: rat kidney (microvilli fraction)
T1 sequence (P07861 1-750): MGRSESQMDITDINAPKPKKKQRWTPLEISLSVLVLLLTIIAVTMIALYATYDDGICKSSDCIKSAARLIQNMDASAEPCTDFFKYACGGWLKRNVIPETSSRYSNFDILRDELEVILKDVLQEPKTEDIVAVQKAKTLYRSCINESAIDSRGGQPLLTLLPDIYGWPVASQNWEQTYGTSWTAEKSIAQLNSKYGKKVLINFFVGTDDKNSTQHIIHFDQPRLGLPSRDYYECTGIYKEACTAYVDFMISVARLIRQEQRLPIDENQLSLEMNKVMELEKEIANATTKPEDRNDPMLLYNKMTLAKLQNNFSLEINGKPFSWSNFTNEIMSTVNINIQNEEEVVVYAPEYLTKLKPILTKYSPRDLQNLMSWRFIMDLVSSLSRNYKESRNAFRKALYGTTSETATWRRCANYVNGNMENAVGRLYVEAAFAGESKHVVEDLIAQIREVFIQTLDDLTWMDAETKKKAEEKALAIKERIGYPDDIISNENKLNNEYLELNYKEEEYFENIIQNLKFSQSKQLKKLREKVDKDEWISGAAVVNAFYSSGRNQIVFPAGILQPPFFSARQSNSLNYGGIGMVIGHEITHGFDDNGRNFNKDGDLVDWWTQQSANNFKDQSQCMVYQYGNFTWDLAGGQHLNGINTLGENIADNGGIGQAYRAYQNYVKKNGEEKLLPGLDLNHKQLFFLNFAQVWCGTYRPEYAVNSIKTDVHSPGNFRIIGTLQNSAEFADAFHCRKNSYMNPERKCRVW
From the text: Enkephalinase is partially purified from rat kidney. The enzyme is extracted from the microvilli fraction by using Triton X-100 according to the method of Malfroy and Schwartz [J.Biol.Chem. 259, 14365-14370 (1984)] or by using a proteolytic treatment according to the method of Almenoff and Orlowski [Biochem. 22, 590-599 (1983)]. The enzyme is further purified by anion exchange chromatography (Mono Q™ column, Pharmacia) using a Pharmacia FPLC system. The enzyme activity may be measured by the fluorometric methods of Florentin et al. [Anal.Biochem. 141, 62-69 (1984)] or of Almenoff and Orlowski [J.Neurochemistry 42, 151-157 (1984)]. The enzyme is assayed in 50mM HEPES buffer (pH 7.4) in a 3.0 mL reaction volume containing 12 µM of the substrate dansyl-D-AlaGly(p-nitro)PheGly (Km=40µM) at 25°C. The substrate (and inhibitor) is added from a concentrated stock solution in DMSO (up to 0.1 mL DMSO final volume). The enzyme in a small volume (approximately 0.1 µg of FPLC purified protein) is added to initiate the reaction and the rate of fluorescense increase is recorded continuously using a fluorometer (excitation at 339nm, emission at 562nm).

ACE = ACE (Homo sapiens, UniProt P12821); experiment: ACE inhibition, spectrophotometric enzyme assay; assay type: biochemical; conditions: spectrophotometric substrate of Holmquist et al.; buffer system of Ryan
Sequence of ACE (P12821 30-1306, species assumed): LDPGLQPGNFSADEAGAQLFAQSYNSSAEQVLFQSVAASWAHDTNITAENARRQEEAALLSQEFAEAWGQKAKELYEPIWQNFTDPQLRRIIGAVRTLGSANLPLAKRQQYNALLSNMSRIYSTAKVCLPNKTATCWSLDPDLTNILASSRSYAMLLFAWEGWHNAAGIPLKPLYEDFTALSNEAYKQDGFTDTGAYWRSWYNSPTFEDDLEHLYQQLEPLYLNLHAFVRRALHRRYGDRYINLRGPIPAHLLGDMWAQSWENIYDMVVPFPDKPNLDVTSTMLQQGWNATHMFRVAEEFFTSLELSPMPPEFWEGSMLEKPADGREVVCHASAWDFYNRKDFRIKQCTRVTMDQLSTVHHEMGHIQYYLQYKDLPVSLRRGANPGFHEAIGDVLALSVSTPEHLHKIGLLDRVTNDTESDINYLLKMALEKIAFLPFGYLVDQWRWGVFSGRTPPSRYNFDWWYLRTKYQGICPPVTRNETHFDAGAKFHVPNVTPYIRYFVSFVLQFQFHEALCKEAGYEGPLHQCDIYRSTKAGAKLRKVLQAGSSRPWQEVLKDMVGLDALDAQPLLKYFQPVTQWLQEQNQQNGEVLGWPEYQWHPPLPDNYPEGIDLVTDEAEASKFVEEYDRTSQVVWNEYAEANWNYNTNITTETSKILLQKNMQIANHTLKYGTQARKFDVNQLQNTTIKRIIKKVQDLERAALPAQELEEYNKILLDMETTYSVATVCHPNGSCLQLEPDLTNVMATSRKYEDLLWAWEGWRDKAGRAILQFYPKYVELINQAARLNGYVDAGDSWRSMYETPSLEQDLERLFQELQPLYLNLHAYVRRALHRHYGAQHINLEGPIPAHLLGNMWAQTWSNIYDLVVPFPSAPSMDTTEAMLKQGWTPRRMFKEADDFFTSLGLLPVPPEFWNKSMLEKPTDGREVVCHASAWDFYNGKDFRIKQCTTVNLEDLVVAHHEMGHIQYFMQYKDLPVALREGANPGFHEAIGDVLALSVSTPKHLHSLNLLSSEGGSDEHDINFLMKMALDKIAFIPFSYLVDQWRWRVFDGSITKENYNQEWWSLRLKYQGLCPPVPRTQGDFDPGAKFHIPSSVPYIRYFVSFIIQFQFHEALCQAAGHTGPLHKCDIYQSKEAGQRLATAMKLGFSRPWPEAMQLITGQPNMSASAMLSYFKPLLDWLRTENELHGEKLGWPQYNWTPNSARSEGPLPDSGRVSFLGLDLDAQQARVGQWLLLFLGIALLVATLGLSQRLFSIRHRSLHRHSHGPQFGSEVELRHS
From the text: The enzymatic activity of ACE is monitored using the spectrophotometric substrate described by Holmquist et al. [Anal.Biochem. 95, 540-548 (1979)] and the buffer system described by Ryan [Methods of Enzymatic Analysis, 3rd ed., H. U. Bergmeyer, editor; vol. V, Verlag Chemie, Weinheim, 1983, pp. 20-34].

SMILES	Ki (Enkephalinase) [nM]	Ki (ACE) [nM]
O=C(O)CC1(C(=O)N[C@H]2Cc3ccccc3[C@H]3CCC[C@@H](C(=O)O)N3C2=O)Cc2ccccc2C1 (relative stereo) [102,353, [4S-[4α, 7α(R*), 12bβ]]-7-[(2-Carboxymethyl-indan-2-yl)carbonylamino]-1,2,3,4,6,7,8,12b-octahydro-6-oxopyrido[2,1-a][2]benzazepine-4-carboxylic acid]	< 0.2	< 104
O=C(O)CC1(C(=O)N[C@H]2Cc3ccccc3[C@H]3CCC[C@@H](C(=O)O)N3C2=O)CCCC1 (relative stereo) [100,137, [4S-[4α, 7α(R*), 12bβ]]-7-[(1-Carboxymethyl-cyclopent-1-yl)carbonylamino]-1,2,3,4,6,7,8,12b-octahydro-6-oxopyrido[2,1-a][2]benzazepine-4-carboxylic acid]	0.4	–
